Legend:
[1] = Sensory analysis: odour threshold
From the text: (§1) Purpose: to carry out a sensory analysis of (−)-Ambrox and the compounds (II), (III) and (IV) formed in the crude material and in the crystallised material.

[2] = Sensory analysis: GC-detection threshold and odour description; settings: for GC-detection threshold / odour description: sensory analysis; for odour description: in words
From the text: as §1

CC1(C)CCC[C@]2(C)[C@H]3CCO[C@]3(C)CC[C@@H]12 [(−)-Ambrox]
Odour Threshold ([1]; sensory analysis): 0.2 ng/L

C/C1=C/CCO[C@@]2(C)CCCC(C)(C)[C@@H]2CC1 [Compound (II)]
detection threshold ([1]; as stated in the description): > 500 ng/L
GC-detection threshold [2]: > 500 ng
odour description [2]: “odorless”
odour description ([2]; listed as II): weaker odour
odour description ([2]; listed as compound of formula (II)): practically odourless

CC1(C)CCC[C@@]2(C)[C@H]1CC[C@@]1(C)OCC[C@@H]21 [Compound (III)]
odor weaker than (−)-Ambrox ([2]; compared with (−)-Ambrox): about 10 fold
GC-detection threshold [2]: circa 2 ng
odour description ([2]; listed as Compound III): essentially odorless
odour description ([2]; listed as III): weaker odour
GC-threshold relative to (−)-Ambrox ([2]; times higher than (−)-Ambrox): about 10 ×

CC1(C)CCC[C@@]2(C)[C@H]1CC[C@]1(C)OCC[C@@H]21 [Compound (IV)]
GC-detection threshold [2]: 5 to 10 ng
odour description [2]: weak, IsoE, woody
odour description ([2]; listed as IV): weaker odour

Reference: patent US10294211B2, “Process for isolating and purifying ambrox” (Givaudan SA, priority 2015, dated 2019)
